One compound from patent US11058690B2, “Use of cytochrome bc1 complex inhibitor in preparing pharmaceutical composition” (BEIJING WEILANZHIYUAN MEDICAL TECHNOLOGY CO., LTD., priority 2017, dated 2021) can be followed below.

Assay [1] has as its system Kunming female mice. As to the kind of experiment: PGF2α-induced dysmenorrhea model in mice (diethylstilbestrol sensitization). Type of assay: in vivo, mouse. The settings on record: for Number of writhing times: within 30 min. Here is the method:
(§1) A mouse dysmenorrhea model was established with reference to Yang L., Cao Z., Yu B. & Chai C. An in vivo mouse model of primary dysmenorrhea. Exp Anim. 2015, August 64, 295-303. Adult healthy Kunming female mice were randomly grouped, 10 mice in each group. Experimental mice were intragastrically given diethylstilbestrol 0.2 mg daily for 12 days. Different kinds and dosages of the inhibitors of the cytochrome bc1 complex were given intraperitoneally or intragastrically 30 min after the last administration. Indometacin (50 mg/kg) was injected intraperitoneally as positive control, PGF2α (1.3 mg/kg) or oxytocin (20 U/kg) was injected intraperitoneally 1 h later, and the writhe starting time (reaction latency) and the number of writhing times within 30 min were observed and recorded.
(In general: Writhing tests count abdominal constrictions after an irritant is injected.)

For assay [2], the system named is Kunming male mice. As to the kind of experiment: acetic acid writhing test on mice. Type of assay: in vivo, mouse. The settings on record: for Number of writhing times: within 30 min.
Assay [3] relates to SD rats. Nature of the assay: carrageenan-induced rat paw swelling test. In kind it is in vivo. The conditions noted are these: 4 mg/Kg positive control. The procedure: Eighteen healthy adult male mice were randomly divided into 3 groups. FAPM (100 mg/kg) was administered intraperitoneally once a day for 3 consecutive days. The control group was injected with the same amount of solvent, and the positive drug dexamethasone (4 mg/kg) was administered intragastrically once a day for 3 consecutive days. Thirty minutes after the last administration, 0.1 mL of 1% carrageenan was injected subcutaneously into the right hind paw of each rat, and the plantar thickness was measured before injection and 1, 2 and 3 hours after injection. Three hours later, the rats were sacrificed by dislocation. The feet were cut off from the knee joints and weighed on a precision balance. The swelling degree of the paw (right foot weight-left foot weight) was calculated.
For orientation: In the carrageenan paw model, swelling and tenderness develop within hours.

Assay [4] relates to mice. As to the kind of experiment: xylene-induced mouse ear swelling test. In kind it is in vivo. The settings on record: 10 mg/Kg. Here is the method:
Fifty healthy adult male mice were randomly divided into 5 groups. […] […] One hour after administration, 20 μL of xylene was evenly applied to both sides of the right ear of mouse, and xylene was not applied to the left ear as self control. One hour later, the two ears were cut off, and two ear pieces were removed from the same parts of the two ears with a 6 mm hole punch. The two ear pieces were weighed on a precision balance, and the swelling degree (right ear piece weight-left ear piece weight) and swelling inhibition rate (right ear piece weight-left ear piece weight)/left ear piece weight×100%) were calculated.

In assay [5] the test system is Kunming female mice. As to the kind of experiment: oxytocin-induced dysmenorrhea model in mice (diethylstilbestrol sensitization). In kind it is in vivo, mouse. The conditions noted are these: Table 9, positive control 50 mg/Kg intraperitoneal. The procedure: as §1
Where [6] appears, read: Table 8, positive control 50 mg/Kg intraperitoneal.
Setting [7] is: Table 5, positive control 50 mg/Kg intraperitoneal.

Structures are written as SMILES.

For the compound `COc1ccc2c(c1)c(CC(=O)O)c(C)n2C(=O)c1ccc(Cl)cc1` [Indomethacin, reference compound], the Writhe starting time in assay [1] (Table 7, 50 mg/Kg intraperitoneal) was 1.89 ± 0.6 min; in assay [1] (setting [6]) it was 2.1 ± 1.2 min; in assay [2] (Table 3, 50 mg/Kg intraperitoneal), 4.6 ± 0.8 min; in assay [2] (setting [7]), 3.4 ± 1.0 min; in assay [5], 3.5 ± 1.0. Further, the “Number of writhing times” value turned out to be 15.0 ± 2.1 in assay [1] (Table 7, 50 mg/Kg intraperitoneal, 1 h before PGF2α (1.3 mg/kg)); 16.8 ± 2.5 in assay [1] (setting [6]); 15.8 ± 3.9 in assay [2] (Table 3, 50 mg/Kg intraperitoneal, 1 hour before acetic acid); 24.8 ± 4.8 in assay [2] (setting [7]); 14.7 ± 1.4 in assay [5] (oxytocin (20 U/kg), within 30 min). In addition, the “Paw swelling thickness 1 h” value in assay [3] (1 h after carrageenan) stood at 5.52 ± 0.39 mm. The “Paw swelling thickness 2 h” value in assay [3] (2 h after carrageenan) is reported as 5.65 ± 0.39 mm. Moreover, in assay [3] (3 h after carrageenan), the “Paw swelling thickness 3 h” value is listed as 6.11 ± 0.15 mm. The “Paw swelling (right foot weight-left foot weight)” value in assay [3] (3 hours after carrageenan) is given as 0.518 ± 0.05 g. Besides, the “ear swelling degree versus control group” value in assay [4] is “no statistical difference”. In assay [4] (positive control intraperitoneal, 1 hour after xylene), this compound came in with an Ear swelling of 12 ± 3.74 mg.
